# In PMC7181660, “A novel specific PERK activator reduces toxicity and extends survival in Huntington's disease models” (Scientific Reports, 2020):
# Legend:
# Assay in all cases: biochemical
# Type in all cases: biochemical
# panel of 391 kinases [1] = biological target: panel of 391 kinases (Homo sapiens, UniProt P29323); details: EPHB2, MK-28 1 µM, ATP 1 µM
# panel of 391 kinases [2] = biological target: panel of 391 kinases (Homo sapiens, UniProt Q9Y4K4); details: KHS/MAP4K5, MK-28 1 µM, ATP 1 µM
# panel of 391 kinases [3] = biological target: panel of 391 kinases (Homo sapiens, UniProt P42679); details: CTK/MATK, MK-28 1 µM, ATP 1 µM
# panel of 391 kinases [4] = biological target: panel of 391 kinases (Homo sapiens, UniProt O15075); details: DCAMKL1, MK-28 1 µM, ATP 1 µM
# panel of 391 kinases [5] = biological target: panel of 391 kinases (Homo sapiens, UniProt O94921); details: CDK14/cyclin Y (PFTK1), MK-28 1 µM, ATP 1 µM
# panel of 391 kinases [6] = biological target: panel of 391 kinases (Homo sapiens, UniProt O75116); details: ROCK2, MK-28 1 µM, ATP 1 µM
# panel of 391 kinases [7] = biological target: panel of 391 kinases (Homo sapiens, UniProt Q15831); details: LKB1, MK-28 1 µM, ATP 1 µM
# panel of 391 kinases [8] = biological target: panel of 391 kinases (Homo sapiens, UniProt P14616); details: IRR/INSRR, MK-28 1 µM, ATP 1 µM
# panel of 391 kinases [9] = biological target: panel of 391 kinases (Homo sapiens, UniProt Q9UKE5); details: TNIK, MK-28 1 µM, ATP 1 µM
# panel of 391 kinases [10] = biological target: panel of 391 kinases (Homo sapiens, UniProt Q13557); details: CAMK2d, MK-28 1 µM, ATP 1 µM
# panel of 391 kinases [11] = biological target: panel of 391 kinases (Homo sapiens, UniProt P46734); details: MEK3, MK-28 1 µM, ATP 1 µM
# panel of 391 kinases [12] = biological target: panel of 391 kinases (Homo sapiens, UniProt O14965); details: Aurora A, MK-28 1 µM, ATP 1 µM
# panel of 391 kinases [13] = biological target: panel of 391 kinases (Homo sapiens, UniProt P16234); details: PDGFRa, MK-28 1 µM, ATP 1 µM
# panel of 391 kinases [14] = biological target: panel of 391 kinases (Homo sapiens, UniProt P29320); details: EPHA3, MK-28 1 µM, ATP 1 µM
# panel of 391 kinases [15] = biological target: panel of 391 kinases (Homo sapiens, UniProt P31751); details: AKT2, MK-28 1 µM, ATP 1 µM
# panel of 391 kinases [16] = biological target: panel of 391 kinases (Homo sapiens, UniProt P29376); details: TYK1/LTK, MK-28 1 µM, ATP 1 µM
# panel of 391 kinases [17] = biological target: panel of 391 kinases (Homo sapiens, UniProt P42680); details: TEC, MK-28 1 µM, ATP 1 µM
# panel of 391 kinases [18] = biological target: panel of 391 kinases (Homo sapiens, UniProt Q9UHD2); details: TBK1, MK-28 1 µM, ATP 1 µM
# panel of 391 kinases [19] = biological target: panel of 391 kinases (Homo sapiens, UniProt Q76MJ5); details: ERN2/IRE2, MK-28 1 µM, ATP 1 µM
# panel of 391 kinases [20] = biological target: panel of 391 kinases (Homo sapiens, UniProt O00311); details: CDC7/DBF4, MK-28 1 µM, ATP 1 µM
# panel of 391 kinases [21] = biological target: panel of 391 kinases (Homo sapiens, UniProt Q8N4C8); details: MINK/MINK1, MK-28 1 µM, ATP 1 µM
# panel of 391 kinases [22] = biological target: panel of 391 kinases (Homo sapiens, UniProt P19784); details: CK2a2, MK-28 1 µM, ATP 1 µM
# panel of 391 kinases [23] = biological target: panel of 391 kinases (Homo sapiens, UniProt P22607); details: FGFR3, MK-28 1 µM, ATP 1 µM
# panel of 391 kinases [24] = biological target: panel of 391 kinases (Homo sapiens, UniProt P27448); details: MARK3, MK-28 1 µM, ATP 1 µM
# panel of 391 kinases [25] = biological target: panel of 391 kinases (Homo sapiens, UniProt Q12866); details: c-MER, MK-28 1 µM, ATP 1 µM
# panel of 391 kinases [26] = biological target: panel of 391 kinases (Homo sapiens, UniProt Q96PF2); details: TSSK2, MK-28 1 µM, ATP 1 µM
# panel of 391 kinases [27] = biological target: panel of 391 kinases (Homo sapiens, UniProt Q9HBH9); details: MNK2, MK-28 1 µM, ATP 1 µM
# [28] = read-out: % Enzyme Activity (relative to DMSO controls)
smiles,measurement,setting,value
CN(/N=C\c1ccc(O)c(O)c1)c1nc(-c2ccccc2)cc(-c2ccccc2)n1 [MK-28],% Enzyme Activity (relative to DMSO controls),panel of 391 kinases [1],94.59%
same,remaining activity at 1 µM,panel of 391 kinases [1]; [28],95.4%
same,% Enzyme Activity (relative to DMSO controls),panel of 391 kinases [2],84.30%
same,remaining activity at 1 µM,panel of 391 kinases [2]; [28],86.9%
same,% Enzyme Activity (relative to DMSO controls),panel of 391 kinases [3],98.98%
same,remaining activity at 1 µM,panel of 391 kinases [3]; [28],101%
same,% Enzyme Activity (relative to DMSO controls),panel of 391 kinases [4],110.18%
same,remaining activity at 1 µM,panel of 391 kinases [4]; [28],111%
same,% Enzyme Activity (relative to DMSO controls),panel of 391 kinases [5],103.85%
same,remaining activity at 1 µM,panel of 391 kinases [5]; [28],105%
same,% Enzyme Activity (relative to DMSO controls),panel of 391 kinases [6],90.11%
same,remaining activity at 1 µM,panel of 391 kinases [6]; [28],90.5%
same,% Enzyme Activity (relative to DMSO controls),panel of 391 kinases [7],90.38%
same,remaining activity at 1 µM,panel of 391 kinases [7]; [28],97.4%
same,% Enzyme Activity (relative to DMSO controls),panel of 391 kinases [8],82.69%
same,remaining activity at 1 µM,panel of 391 kinases [8]; [28],85.9%
same,% Enzyme Activity (relative to DMSO controls),panel of 391 kinases [9],100.50%
same,remaining activity at 1 µM,panel of 391 kinases [9]; [28],102%
same,% Enzyme Activity (relative to DMSO controls),panel of 391 kinases [10],94.06%
same,remaining activity at 1 µM,panel of 391 kinases [10]; [28],94.2%
same,% Enzyme Activity (relative to DMSO controls),panel of 391 kinases [11],88.71%
same,remaining activity at 1 µM,panel of 391 kinases [11]; [28],96.2%
same,% Enzyme Activity (relative to DMSO controls),panel of 391 kinases [12],71.13%
same,remaining activity at 1 µM,panel of 391 kinases [12]; [28],73.2%
same,% Enzyme Activity (relative to DMSO controls),panel of 391 kinases [13],97.43%
same,remaining activity at 1 µM,panel of 391 kinases [13]; [28],97.7%
same,% Enzyme Activity (relative to DMSO controls),panel of 391 kinases [14],93.74%
same,remaining activity at 1 µM,panel of 391 kinases [14]; [28],106%
same,% Enzyme Activity (relative to DMSO controls),panel of 391 kinases [15],95.73%
same,remaining activity at 1 µM,panel of 391 kinases [15]; [28],98.1%
same,% Enzyme Activity (relative to DMSO controls),panel of 391 kinases [16],82.78%
same,remaining activity at 1 µM,panel of 391 kinases [16]; [28],84.2%
same,% Enzyme Activity (relative to DMSO controls),panel of 391 kinases [17],100.49%
same,remaining activity at 1 µM,panel of 391 kinases [17]; [28],101%
same,% Enzyme Activity (relative to DMSO controls),panel of 391 kinases [18],116.87%
same,remaining activity at 1 µM,panel of 391 kinases [18]; [28],126%
same,% Enzyme Activity (relative to DMSO controls),panel of 391 kinases [19],97.92%
same,remaining activity at 1 µM,panel of 391 kinases [19]; [28],99.7%
same,% Enzyme Activity (relative to DMSO controls),panel of 391 kinases [20],105.60%
same,remaining activity at 1 µM,panel of 391 kinases [20]; [28],113%
same,% Enzyme Activity (relative to DMSO controls),panel of 391 kinases [21],95.98%
same,remaining activity at 1 µM,panel of 391 kinases [21]; [28],98.7%
same,% Enzyme Activity (relative to DMSO controls),panel of 391 kinases [22],73.33%
same,remaining activity at 1 µM,panel of 391 kinases [22]; [28],78%
same,% Enzyme Activity (relative to DMSO controls),panel of 391 kinases [23],103.07%
same,remaining activity at 1 µM,panel of 391 kinases [23]; [28],103%
same,% Enzyme Activity (relative to DMSO controls),panel of 391 kinases [24],98.84%
same,remaining activity at 1 µM,panel of 391 kinases [24]; [28],99%
same,% Enzyme Activity (relative to DMSO controls),panel of 391 kinases [25],97.57%
same,remaining activity at 1 µM,panel of 391 kinases [25]; [28],98.6%
same,% Enzyme Activity (relative to DMSO controls),panel of 391 kinases [26],76.99%
same,remaining activity at 1 µM,panel of 391 kinases [26]; [28],77.3%
same,% Enzyme Activity (relative to DMSO controls),panel of 391 kinases [27],105.57%
same,remaining activity at 1 µM,panel of 391 kinases [27]; [28],114%
